Assay results as given in patent US20170232059A1, “COMPOSITION COMPRISING OXYTOCIN” (PEP-TONIC MEDICAL AB, priority 2012, published 2017).
Read-outs that look alike come from different tables or passages of the source. Starred links: 1 amine or outer side, 2 acyl side, 3 side chain; linkers in the order of their positions; H or OH if unused. Positions of bridges follow the written chain, without caps; N, C: chain ends. Residues, ends and D or L forms follow the SMILES beside them. X1 = O=C(CCC[*:2])[*:1]

Columns and labels:
[1] = in vivo; cited from earlier work
[2] = Blood plasma levels of oxytocin after intravaginal administration (Example 1) and AUC calculation; format: in vivo, human
Procedure: The first value is taken before the treatment of intravaginal oxytocin has started.
Blood samples were collected from 20 individuals before and repeatedly after administration of oxytocin during a 90 minute period. […] (FIG. 2).
The amount of oxytocin which is absorbed following intravaginal administration of oxytocin expressed as area under the curve (AUC) can be calculated using the trapezoid method according to standardized pharmacokinetic procedures as the clearance rat for oxytocin (CL) is known (70 L/H).
As oxytocin levels were only measured during a 90 minute period it had to be assumed that the concentration of oxytocin after 2 hours continues to fall according to the half-life of oxytocin.

[3] = Skin penetration in Franz diffusion cells; format: in vitro ADME, pig; conditions: for share that has penetrated the skin: of 200 IU (approx. 0.4 mg)
Procedure: Skin penetration was performed in Franz diffusion cells using dermatomed pig's ear skin (thickness approx. 500 μm and surface area 0.64 cm^2). The receptor volume of each cell was 6 mL and citrate buffer, pH 4.5 was used as receptor media. The temperature was maintained at 32° C. and the stirring speed in the receptor chamber was kept at 300 rpm. Sampling was done in triplicate at 24 hours intervals for 4 days, i.e. 24, 48, 72 and 96 h. 1.5 mL of receptor media was taken and replaced with the same volume of citrate buffer. Immediately after collection the samples were kept at −20° C.
A water solution of oxytocin was prepared in a concentration of 4000 IU/g, which corresponds to ca 6.8 mg/g. The solution was pH adjusted with a 50 mM citrate buffer to 4.0 in order to achieve reasonable chemical stability. The oxytocin solutions were added in excess, ca 1 g, on the donor side of the skin and covered to prevent evaporation.
The samples were thawed just prior analysis by HPLC, method M272-0. The limit of quantification (QL) is 12.5 ng/mL or 1.25 ng injected amount.

[4] = Bioavailability of vaginally administered oxytocin, study OXYPEP002; format: in vivo; conditions: human; for level at 0.5 h / level at 1 h / level at 2 h: post-dose; for level at 0.5 h: read-out: Average blood oxytocin level, 30 min Visit 2; for level at 1 h: read-out: Average blood oxytocin level, 60 min Visit 2; for level at 2 h: read-out: Average blood oxytocin level, 120 min Visit 2; for AUC(0-t): read-out: AUC0-30 min
Procedure: The objective of the present analysis was to estimate the bioavailability of oxytocin following vaginal administration of 100 (170 μg) or 400 IU (680 μg) oxytocin vaginal gel using data from study OXYPEP002 (Clinical trial protocol OXYPEP002). The oxytocin vaginal gel is Vagitocin® gel.
Data from study OXYPEP002 was used for the analysis. Study OXYPEP002 was conducted with the primary objective to investigate the dose-relationship of topical Vagitocin on the vaginal mucosal membrane (Clinical trial protocol OXYPEP002). OXYPEP002 was a double-blind, randomized, placebo controlled trial, with a parallel group design. Vagitocin (oxytocin gel) in two different doses (100 IU and 400 IU) was administered topically once daily during 7 weeks. A placebo gel with the same composition was used as comparator. In total 64 patients were to be included in the study. At the baseline visit (visit 1), blood sampling for oxytocin analysis were drawn for the first 24 included subjects. This sample represents the true baseline oxytocin observation. For the same 24 subjects, blood sampling for oxytocin analysis were also drawn at visit 2 (2 weeks ±2 days) with sampling pre-dose and at 30 min, 60 min and 120 min post-dose. Only subjects that completed the full sampling schedule were included in the analysis. The calculations were based on average blood oxytocin measurements for each dose level and sampling time point (Table 2).
The systemic oxytocin exposure following vaginally administered oxytocin was assessed by calculating the area under the blood concentration versus time curve (AUC) according to the trapezoidal rule. The data from visit 2 were used where the pre-dose sample was assumed to represent a new baseline observation.
The blood concentration of oxytocin had not returned to the baseline observation at the lasts sampling time point (120 min post-dose).
The endogenous oxytocin level (AUCbaseline) was calculated and subtracted from the total AUC to achieve the oxytocin exposure following the vaginally administered dose (AUCvaginal).
The bioavailability was calculated according to equation 1. As no intravenous dose was administered in study OXYPEP002, AUCiv was calculated according to available information in the literature (De Groot A N et al. 1995, Amico J A et al. 1987, Dawood M Y et al. 1980) according to equation 2.

[5] = cited from earlier work
[6] = six male subjects, intravenous 1 IU (De Groot 1995)

SMILES: CC[C@H](C)[C@@H]1NC(=O)[C@H](Cc2ccc(OC)cc2)NC(=O)CCCSC[C@@H](C(=O)N2CCC[C@H]2C(=O)N[C@@H](CC(C)C)C(=O)NCC(N)=O)NC(=O)[C@H](CC(N)=O)NC(=O)[C@H](CCC(N)=O)NC1=O [carbetocin] (Y(Me)IQNCPLG-NH2; linker N-5 via X1)
- half-life relative to oxytocin [1]: about three times longer

SMILES: CC[C@H](C)[C@@H]1NC(=O)[C@H](Cc2ccc(O)cc2)NC(=O)[C@@H](N)CSSC[C@@H](C(=O)N2CCC[C@H]2C(=O)N[C@@H](CC(C)C)C(=O)NCC(N)=O)NC(=O)[C@H](CC(N)=O)NC(=O)[C@H](CCC(N)=O)NC1=O [oxytocin, Cys-Tyr-Ile-Gln-Asn-Cys-Pro-Leu-Gly-NH2]
- fraction of the given dose absorbed ([2]; 100 IU intravaginal): 0.064
- plasma oxytocin levels at 15, 30, 60 and 90 minutes after administration ([2]; 100 and 400 IU intravaginal, FIG. 2): elevated in a pulse like fashion
- fraction of the given dose absorbed ([2]; 400 IU intravaginal): 0.11
- plasma levels of oxytocin ([2]; following 100 and 400 IU intravaginal, 90 minute period): rose dose dependently
- plasma oxytocin value obtained 10 hours after treatment ([2]; intravaginal, FIG. 2, vs before treatment): higher than those observed before treatment was started
- absorbed via the epithelial membrane into the blood stream ([2]; topical composition comprising a non-ionic cellulose ether): about 10%
- share that has penetrated the skin ([3]; after 24 h): 0.1%
- oxytocin penetrated into receptor ([3]; after 24 h, 4000 IU/g water solution): 0.6 µg
- share that has penetrated the skin ([3]; after 96 h): ~1%
- oxytocin detected in the receptor chamber ([3]; after 96 hours, 4000 IU/g citrate buffered water solution, pH 4.0, 32° C.): 4 µg
- AUC ([4]; female, blood, 100 IU, 100 IU vaginal, read-out: AUC30-60 min): 0.0633 ng·h/mL
- AUC ([4]; female, blood, 100 IU, 100 IU vaginal, read-out: AUC60-120 min): 0.11 ng·h/mL
- AUC ([4]; female, blood, 100 IU, 100 IU vaginal, residual area alternative i, read-out: AUCresidual): 0.346 ng·h/mL
- AUC ([4]; female, blood, 100 IU, 100 IU vaginal, residual area alternative i, read-out: AUCvaginal): 0.299 ng·h/mL
- bioavailability ([4]; female, blood, 100 IU, 100 IU vaginal, residual area alternative i, read-out: Bioavailability): 12%
- AUC ([4]; female, blood, 100 IU, 100 IU vaginal, residual area alternative ii, read-out: AUCresidual): 0.0322 ng·h/mL
- AUC ([4]; female, blood, 100 IU, 100 IU vaginal, residual area alternative ii, read-out: AUCvaginal): 0.156 ng·h/mL
- bioavailability ([4]; female, blood, 100 IU, 100 IU vaginal, residual area alternative ii, read-out: Bioavailability): 6.4%
- AUC ([4]; female, blood, 400 IU, 400 IU vaginal, read-out: AUC30-60 min): 0.362 ng·h/mL
- AUC ([4]; female, blood, 400 IU, 400 IU vaginal, read-out: AUC60-120 min): 0.504 ng·h/mL
- AUC ([4]; female, blood, 400 IU, 400 IU vaginal, residual area alternative i, read-out: AUCresidual): 0.783 ng·h/mL
- AUC ([4]; female, blood, 400 IU, 400 IU vaginal, residual area alternative i, read-out: AUCvaginal): 1.53 ng·h/mL
- bioavailability ([4]; female, blood, 400 IU, 400 IU vaginal, residual area alternative i, read-out: Bioavailability): 16%
- AUC ([4]; female, blood, 400 IU, 400 IU vaginal, residual area alternative ii, read-out: AUCresidual): 0.193 ng·h/mL
- AUC ([4]; female, blood, 400 IU, 400 IU vaginal, residual area alternative ii, read-out: AUCvaginal): 1.1 ng·h/mL
- bioavailability ([4]; female, blood, 400 IU, 400 IU vaginal, residual area alternative ii, read-out: Bioavailability): 11%
- bioavailability ([4]; female, blood, vaginal, 100 and 400 IU, read-out: bioavailability, range over both dose levels and alternatives): 6.4 to 16%
- level at 0.5 h ([4]; female, blood, 100 IU vaginal): 0.133 ng/mL
- level at 1 h ([4]; female, blood, 100 IU vaginal): 0.12 ng/mL
- level at 2 h ([4]; female, blood, 100 IU vaginal): 0.099 ng/mL
- AUC(0-t) ([4]; female, blood, 100 IU vaginal): 0.0426 ng·h/mL
- level at 0.5 h ([4]; female, blood, 400 IU vaginal): 0.816 ng/mL
- level at 1 h ([4]; female, blood, 400 IU vaginal): 0.63 ng/mL
- level at 2 h ([4]; female, blood, 400 IU vaginal): 0.378 ng/mL
- AUC(0-t) ([4]; female, blood, 400 IU vaginal): 0.219 ng·h/mL
- AUC ([4]; in vivo, iv, 1 ug, AUCiv, assumed intravenous dose of 1 μg and a CL of 70 L/h): 0.0143 ng·h/mL
- CL ([5]; healthy male subjects (Amico 1987, Dawood 1980)): 70 to 90 L/h
- clearance rate (CL) ([5]; known value used for AUC calculation): 70 L/H
- terminal elimination half-life (t1/2) [5, 6]: 19.8 min
- volume of distribution (V) [5, 6]: 33.2 L
- total body CL ([5]; six male subjects, intravenous dose of 1 IU (1.7 μg), two-compartment model (De Groot 1995)): 67.1 L/h
- half-life [1]: about 30 min
